Data taken from ChEMBL document CHEMBL4831555, “Identification and Validation of New Interleukin-2 Ligands Using DNA-Encoded Libraries” (J Med Chem, 2021).
Activity calls are given as the source filed them. The calls are words filed in the database; no cut-off is given here.

How the values were obtained:
Interleukin-2 [1] = molecular target: T1, Interleukin-2 (Homo sapiens, UniProt P60568); test: Binding affinity to L19-IL2 (unknown origin) by fluorescence polarization assay
Albumin = Albumin (Homo sapiens, UniProt P02768); test: Binding affinity to human serum albumin by fluorescence polarization assay
[2] = Binding affinity to AGP (unknown origin) by fluorescence polarization assay; parameters: species or system Homo sapiens
[3] = Inhibition of IL2/IL-2Ralpha (unknown origin) interaction; parameters: species or system Homo sapiens
Interleukin-2 [4] = molecular target: T1, Interleukin-2; test: Binding affinity to IL2 (unknown origin) by SPR assay
Tumor necrosis factor = Tumor necrosis factor (Homo sapiens, UniProt P01375); test: Binding affinity to TNF (unknown origin)
[5] = molecular target: Interleukin-15 (Homo sapiens) (UniProt P40933); test: Binding affinity to IL-15 (unknown origin)
Interleukin-2 [6] = molecular target: T1, Interleukin-2; test: Binding affinity to IL2 (unknown origin) preincubated for 15 mins followed by NARA1 addition and measured after 1 hr in presence of NARA1 by ELISA

T1 sequence (P60568 whole entry): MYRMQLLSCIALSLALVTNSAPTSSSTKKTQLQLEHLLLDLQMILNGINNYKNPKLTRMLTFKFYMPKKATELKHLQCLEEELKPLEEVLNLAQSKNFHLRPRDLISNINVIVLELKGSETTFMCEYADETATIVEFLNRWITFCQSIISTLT
Chain of Albumin (P02768 whole entry): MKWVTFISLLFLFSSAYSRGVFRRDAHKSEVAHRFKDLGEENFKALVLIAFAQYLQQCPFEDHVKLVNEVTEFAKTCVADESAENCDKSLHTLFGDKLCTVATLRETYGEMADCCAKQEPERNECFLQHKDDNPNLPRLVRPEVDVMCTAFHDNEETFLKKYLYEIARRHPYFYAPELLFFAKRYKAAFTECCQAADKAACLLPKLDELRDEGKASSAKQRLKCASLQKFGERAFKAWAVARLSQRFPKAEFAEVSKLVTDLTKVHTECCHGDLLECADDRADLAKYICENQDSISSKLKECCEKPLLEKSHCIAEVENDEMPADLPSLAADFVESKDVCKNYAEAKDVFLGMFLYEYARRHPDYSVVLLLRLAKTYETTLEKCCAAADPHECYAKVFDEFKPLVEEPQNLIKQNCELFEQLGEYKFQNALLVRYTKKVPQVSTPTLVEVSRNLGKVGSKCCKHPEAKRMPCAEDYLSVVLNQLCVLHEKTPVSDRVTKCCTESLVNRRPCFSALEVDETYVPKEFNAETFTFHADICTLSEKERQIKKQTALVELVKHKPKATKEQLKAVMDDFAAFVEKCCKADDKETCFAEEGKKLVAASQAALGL
Chain of Tumor necrosis factor (P01375 whole entry): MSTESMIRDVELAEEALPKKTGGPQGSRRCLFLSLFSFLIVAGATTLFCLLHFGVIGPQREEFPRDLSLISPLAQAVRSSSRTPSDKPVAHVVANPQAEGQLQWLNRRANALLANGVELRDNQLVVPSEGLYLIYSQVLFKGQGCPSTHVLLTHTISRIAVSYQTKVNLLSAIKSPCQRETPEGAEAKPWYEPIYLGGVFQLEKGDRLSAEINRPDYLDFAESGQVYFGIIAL
Chain of Interleukin-15 (Homo sapiens) (P40933 whole entry): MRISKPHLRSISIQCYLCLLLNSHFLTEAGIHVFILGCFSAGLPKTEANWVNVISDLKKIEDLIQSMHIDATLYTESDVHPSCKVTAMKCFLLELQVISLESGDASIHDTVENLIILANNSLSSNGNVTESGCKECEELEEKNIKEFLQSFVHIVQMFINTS

O=C(N[C@@H](Cc1ccc(O)c(Br)c1)C(=O)O)c1cc2c(F)cccc2[nH]1
Kd (Interleukin-2 [1]): 300 nM | Kd (Albumin): 780 nM

O=C(N[C@@H](Cc1ccc(O)cc1)C(=O)O)c1cc2c(F)cccc2[nH]1
Kd (Interleukin-2 [1]): 1400 nM | Kd (Albumin): 1500 nM

N=C(N)NCCC[C@@H](NC(=O)[C@H](Cc1ccc(O)c(I)c1)NC(=O)c1cc2c(F)cccc2[nH]1)C(=O)O
Kd (Interleukin-2 [1]): 870 nM | Kd (Albumin): 9600 nM | Kd [2]: 3000 nM

COC(=O)[C@H](Cc1ccc(C#Cc2ccccc2)cc1)NC(=O)C[C@@H]1CCCN(C(=N)N)C1
IC50 [3]: 3000 nM | Kd (Interleukin-2 [1]): 1500 nM | Kd (Albumin): 4000 nM | Kd [2]: 4900 nM | Kd (Interleukin-2 [4]): 22000 nM

O=C(N[C@@H](Cc1ccc(O)c(I)c1)C(=O)O)c1cc2c(F)cccc2[nH]1
Kd (Interleukin-2 [1]): 250 nM | Kd (Albumin): 290 nM | Kd (Tumor necrosis factor): 5100 nM

O=C(N[C@@H](Cc1ccc(O)c(Cl)c1)C(=O)O)c1cc2c(F)cccc2[nH]1
Kd (Interleukin-2 [1]): 590 nM | Kd (Albumin): 580 nM

O=C(N[C@@H](Cc1ccc(O)c([N+](=O)[O-])c1)C(=O)O)c1cc2c(F)cccc2[nH]1
Kd (Interleukin-2 [1]): 720 nM | Kd (Albumin): 310 nM

O=C(N[C@@H](Cc1ccc(O)c(I)c1)C(=O)O)c1cc2ccccc2[nH]1
Kd (Interleukin-2 [1]): 420 nM | Kd (Albumin): 390 nM

N=C(N)NCCC[C@H](NC(=O)[C@@H](Cc1ccc(O)c(I)c1)NC(=O)c1cc2c(F)cccc2[nH]1)C(=O)O
Kd (Interleukin-2 [1]): 1200 nM | Kd (Albumin): 3300 nM | Kd [2]: > 10000 nM

O=C(N[C@@H](Cc1ccc(O)c(I)c1)C(=O)O)c1cc2cc(F)ccc2[nH]1
Kd (Interleukin-2 [1]): 330 nM | Kd (Albumin): 270 nM

O=C(N[C@@H](Cc1ccc(O)c(I)c1)C(=O)O)c1cc2cccc(F)c2[nH]1
Kd (Interleukin-2 [1]): 390 nM | Kd (Albumin): 210 nM

O=C(N[C@H](Cc1ccc(O)c(I)c1)C(=O)O)c1cc2c(F)cccc2[nH]1
Kd (Interleukin-2 [1]): 210 nM | Kd (Albumin): 220 nM

O=C(N[C@@H](Cc1ccc(O)c(I)c1)C(=O)O)c1cc2ccc(F)cc2[nH]1
Kd (Interleukin-2 [1]): 280 nM | Kd (Albumin): 170 nM

O=C(N[C@@H](Cc1ccc2ccccc2c1)C(=O)O)c1cc2c(F)cccc2[nH]1
Kd (Interleukin-2 [1]): 750 nM | Kd (Albumin): 30 nM

N=C(N)NCCC[C@@H](NC(=O)[C@@H](Cc1ccc(O)c(I)c1)NC(=O)c1cc2c(F)cccc2[nH]1)C(=O)O
Kd (Interleukin-2 [1]): 710 nM | Kd (Albumin): 7200 nM | Kd [2]: 4000 nM

COc1ccc(C[C@H](NC(=O)c2cc3c(F)cccc3[nH]2)C(=O)O)cc1
Kd (Interleukin-2 [1]): 1300 nM | Kd (Albumin): 430 nM

O=C(N[C@@H](Cc1ccc(I)cc1)C(=O)O)c1cc2c(F)cccc2[nH]1
Kd (Interleukin-2 [1]): 640 nM | Kd (Albumin): 70 nM

O=C(N[C@@H](Cc1ccc(O)c(F)c1)C(=O)O)c1cc2c(F)cccc2[nH]1
Kd (Interleukin-2 [1]): 920 nM | Kd (Albumin): 1700 nM

N=C(N)NCCC[C@H](NC(=O)[C@H](Cc1ccc(O)c(I)c1)NC(=O)c1cc2c(F)cccc2[nH]1)C(=O)O
Kd (Interleukin-2 [1]): 340 nM | Kd (Albumin): 2000 nM | Kd [2]: 3400 nM | Kd (Tumor necrosis factor): 4400 nM | Activity [5]: inactive | IC50 (Interleukin-2 [6]): 3400 nM

O=C(N[C@@H](Cc1ccc(O)c(I)c1)C(=O)O)c1c[nH]c2cccc(F)c12
Kd (Interleukin-2 [1]): 510 nM | Kd (Albumin): 820 nM

O=C(N[C@@H](Cc1ccc(O)c(I)c1)C(=O)O)c1cc2c(F)cccc2o1
Kd (Interleukin-2 [1]): 2200 nM | Kd (Albumin): 1000 nM

CC(C)C[C@@H](NC(=N)N)C(=O)NCC(=O)N1CCC(c2cc(-c3ccc(OCc4ccc(C(=O)O)o4)c(Cl)c3Cl)nn2C)CC1
IC50 [3]: 60 nM

O=C(N[C@@H](Cc1cccc(I)c1)C(=O)O)c1cc2c(F)cccc2[nH]1
Kd (Interleukin-2 [1]): 250 nM | Kd (Albumin): 20 nM
